This is an account of results in PubChem BioAssay (NCI).

Each structure is given as a SMILES string.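 Test compounds were applied to cells in 96-well plates for 48 hours at 5 doses. GI50 = concentration required for 50% inhibition of growth. TGI is the concentration that stops growth completely.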

Some test systems named below: CCRF-CEM leukemia; EKVX NSCLC; LOX IMVI melanoma; NCI-H522 lung; OVCAR-8 ovarian; RPMI-8226 leukemia; SF-539 CNS; SK-MEL-2 melanoma; SK-MEL-28 melanoma; UACC-62 melanoma.
What all share (test): NCI-60 cell line screen, 48 h

On to `NC(=O)C(=O)N/N=C(\CC1(O)C(=O)Nc2ccccc21)c1ccc2ccccc2c1` (stereo not drawn), for which the TGI in the test with CCRF-CEM leukemia was 48.5 µM; in the test with EKVX NSCLC, above 100 µM; in the test on LOX IMVI melanoma, 85.5 µM; with NCI-H522 lung it was 41.6 µM; in the test with OVCAR-8 ovarian, above 100 µM; in the test with RPMI-8226 leukemia it was 86.3 µM. Further, the TGI was above 100 µM with SF-539 CNS, 48.5 µM in the test on SK-MEL-2 melanoma, above 100 µM with SK-MEL-28 melanoma and 77.9 µM in the test with UACC-62 melanoma.
In the case of `CC[C@]1(O)C[C@@H]2CN(CCc3c([nH]c4ccccc34)[C@@](C(=O)OC)(c3cc4c(cc3OC)N(C)[C@H]3[C@@](O)(C(=O)OC)[C@H](OC(C)=O)[C@]5(CC)C=CCN6CC[C@]43[C@@H]65)C2)C1`, the GI50 in the test on CCRF-CEM leukemia, in the test with LOX IMVI melanoma, in the test on NCI-H522 lung, in the test with OVCAR-8 ovarian, with RPMI-8226 leukemia and in the test with SF-539 CNS was below 0.01 µM in each case. Also, the GI50 is below 0.0149 µM with SK-MEL-2 melanoma, 11.1 µM with SK-MEL-28 melanoma and below 0.01 µM with UACC-62 melanoma. Besides, the TGI with CCRF-CEM leukemia was above 49.3 µM; in the test on EKVX NSCLC, above 79 µM; in the test on LOX IMVI melanoma it was 14.8 µM; in the test with OVCAR-8 ovarian, above 100 µM; with RPMI-8226 leukemia it was 8.54 µM; in the test with SF-539 CNS, below 0.01 µM. For the same compound, the TGI worked out at 20.2 µM with SK-MEL-2 melanoma, 28 µM in the test with SK-MEL-28 melanoma and 17.4 µM in the test with UACC-62 melanoma.
Take `COc1cc(C2=C(c3ccccc3)COC2=O)cc(OC)c1OC`: the GI50 in the test with CCRF-CEM leukemia is 1.38 µM; with EKVX NSCLC it was above 31.8 µM; with LOX IMVI melanoma, 18.6 µM; in the test with NCI-H522 lung it was 2.48 µM; with OVCAR-8 ovarian, 5.04 µM; in the test with RPMI-8226 leukemia, 1.12 µM. For the same compound, the GI50 with SF-539 CNS was 1.26 µM; in the test on SK-MEL-2 melanoma, 7.81 µM; with SK-MEL-28 melanoma it was above 100 µM; in the test on UACC-62 melanoma, 1.63 µM. Besides, the TGI was above 100 µM with CCRF-CEM leukemia; above 100 µM in the test with EKVX NSCLC; above 100 µM with LOX IMVI melanoma; above 57.4 µM in the test on NCI-H522 lung; above 51.4 µM in the test on OVCAR-8 ovarian; 5.28 µM in the test on RPMI-8226 leukemia. Moreover, the TGI is above 51.4 µM in the test on SF-539 CNS, above 100 µM in the test with SK-MEL-2 melanoma, above 100 µM with SK-MEL-28 melanoma and above 100 µM in the test with UACC-62 melanoma.
As to `O=c1/c(=C/c2ccco2)sc2nc3ccccc3n12`, the GI50 with CCRF-CEM leukemia was above 100 µM; with EKVX NSCLC, above 10 µM; in the test with LOX IMVI melanoma, above 100 µM; in the test on NCI-H522 lung it was above 100 µM; in the test on OVCAR-8 ovarian it was above 100 µM; with RPMI-8226 leukemia, above 100 µM. Besides, the GI50 in the test with SF-539 CNS, in the test with SK-MEL-2 melanoma, in the test with SK-MEL-28 melanoma and in the test on UACC-62 melanoma was above 100 µM each time. Besides, the TGI in the test with CCRF-CEM leukemia, in the test with EKVX NSCLC, with LOX IMVI melanoma, in the test on NCI-H522 lung, in the test with OVCAR-8 ovarian and in the test on RPMI-8226 leukemia was above 100 µM in each case. Moreover, the TGI in the test with SF-539 CNS, with SK-MEL-2 melanoma, with SK-MEL-28 melanoma and in the test on UACC-62 melanoma was above 100 µM throughout.
Turning to `COc1ccc(-c2cnnc3c(-c4cccc(C(F)(F)F)c4)cnn23)cc1`, the GI50 was above 100 µM in the test with CCRF-CEM leukemia; 3.41 µM in the test with EKVX NSCLC; above 100 µM in the test on LOX IMVI melanoma; 3.66 µM with NCI-H522 lung; 3.33 µM with OVCAR-8 ovarian; 2.72 µM with RPMI-8226 leukemia. The GI50 is 3 µM with SF-539 CNS, 1.43 µM in the test with SK-MEL-2 melanoma, 3.14 µM in the test on SK-MEL-28 melanoma and 4.01 µM in the test with UACC-62 melanoma. In addition, the TGI with CCRF-CEM leukemia, in the test with EKVX NSCLC, with LOX IMVI melanoma, in the test on NCI-H522 lung, in the test with OVCAR-8 ovarian and in the test on RPMI-8226 leukemia was above 100 µM in each case. Also, the TGI in the test with SF-539 CNS is above 100 µM; with SK-MEL-2 melanoma, 79.8 µM; in the test with SK-MEL-28 melanoma, above 100 µM; with UACC-62 melanoma, above 100 µM.
Regarding `C=CC(=O)N1CC2(CCN(c3nc(OC4CCN(CCCOC)CC4)nc4c(OCC(F)(F)F)c(-c5c(C)ccc6[nH]ncc56)c(C5CC5)cc34)CC2)C1`, the GI50 in the test with CCRF-CEM leukemia is 2.46 µM; with EKVX NSCLC it was 4.33 µM; in the test with LOX IMVI melanoma, 1.7 µM; in the test on NCI-H522 lung, 1.78 µM; with OVCAR-8 ovarian, 3.26 µM; in the test with RPMI-8226 leukemia, 2.14 µM. Also, the GI50 is 1.65 µM in the test with SF-539 CNS, 2.19 µM with SK-MEL-2 melanoma, 1.75 µM in the test on SK-MEL-28 melanoma and 5.27 µM in the test with UACC-62 melanoma. In addition, the TGI with CCRF-CEM leukemia stood at 8.09 µM; in the test on EKVX NSCLC, 16.9 µM; in the test on LOX IMVI melanoma it was 3.15 µM; in the test on NCI-H522 lung, 3.57 µM; in the test on OVCAR-8 ovarian, 17.4 µM; in the test on RPMI-8226 leukemia, 5.81 µM. Also, the TGI came out at 3.07 µM with SF-539 CNS, 4.77 µM in the test on SK-MEL-2 melanoma, 3.37 µM in the test with SK-MEL-28 melanoma and 18.9 µM in the test with UACC-62 melanoma.
For `COc1ccc(NC2=CC(=O)C(=O)c3ccccc32)nn1`, the TGI in the test with CCRF-CEM leukemia is above 100 µM; in the test with EKVX NSCLC, 9.82 µM; in the test on LOX IMVI melanoma, 4.14 µM; in the test with NCI-H522 lung it was 2.16 µM; in the test on OVCAR-8 ovarian, 5.35 µM; in the test with RPMI-8226 leukemia, 5.34 µM. Also, the TGI with SF-539 CNS turned out to be 2.2 µM; in the test on SK-MEL-2 melanoma it was 4.32 µM; in the test on SK-MEL-28 melanoma it was 2.3 µM; in the test on UACC-62 melanoma, 3.01 µM.
On to `COC(=O)[C@]12CC[C@@H](C)[C@H](C)[C@@H]1C1=CC[C@@H]3[C@@]4(C)C/C(=N\O)[C@H](O)[C@@]5(C)COC(=C45)C[C@@]3(C)[C@]1(C)CC2`, for which the GI50 was 2.79 µM in the test on CCRF-CEM leukemia; 10.3 µM with EKVX NSCLC; 4.6 µM in the test on LOX IMVI melanoma; 14.1 µM in the test with NCI-H522 lung; 10 µM in the test with OVCAR-8 ovarian; 2.67 µM in the test with RPMI-8226 leukemia. For the same compound, the GI50 in the test with SF-539 CNS was 9.05 µM; in the test on SK-MEL-2 melanoma, 13.4 µM; in the test on SK-MEL-28 melanoma, 15 µM; in the test with UACC-62 melanoma it was 12.6 µM. Moreover, the TGI is 8.83 µM in the test on CCRF-CEM leukemia; 24.3 µM in the test with EKVX NSCLC; 17 µM with LOX IMVI melanoma; 30.1 µM with NCI-H522 lung; 26.6 µM in the test with OVCAR-8 ovarian; 6.82 µM in the test on RPMI-8226 leukemia. Moreover, the TGI with SF-539 CNS was 22.4 µM; with SK-MEL-2 melanoma, 28.9 µM; with SK-MEL-28 melanoma, 33.7 µM; in the test with UACC-62 melanoma, 27.1 µM.
